From patent publication US12195490B2, “STRAD-binding agents and uses thereof” (The Regents of the University of California, priority 2020, dated 2025)

These molecules were tested against T1, LKB1 (Homo sapiens, UniProt Q15831+Q7RTN6) (assay: in vitro LKB1 functional activity). Details: APA analogs.
T1 sequence (Q15831 1-433): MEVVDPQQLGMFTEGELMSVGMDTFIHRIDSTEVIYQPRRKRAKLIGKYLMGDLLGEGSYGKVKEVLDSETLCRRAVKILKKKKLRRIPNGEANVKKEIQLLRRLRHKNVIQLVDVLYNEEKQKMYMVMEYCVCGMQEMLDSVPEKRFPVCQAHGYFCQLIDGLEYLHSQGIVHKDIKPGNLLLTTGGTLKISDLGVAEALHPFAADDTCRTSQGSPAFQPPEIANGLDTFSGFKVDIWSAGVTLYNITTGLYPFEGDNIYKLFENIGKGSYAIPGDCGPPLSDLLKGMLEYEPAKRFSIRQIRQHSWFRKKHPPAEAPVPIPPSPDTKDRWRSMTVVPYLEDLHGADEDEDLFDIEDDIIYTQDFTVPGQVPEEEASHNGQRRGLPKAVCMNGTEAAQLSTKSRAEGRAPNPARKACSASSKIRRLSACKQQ
T1 sequence (Q7RTN6 1-431): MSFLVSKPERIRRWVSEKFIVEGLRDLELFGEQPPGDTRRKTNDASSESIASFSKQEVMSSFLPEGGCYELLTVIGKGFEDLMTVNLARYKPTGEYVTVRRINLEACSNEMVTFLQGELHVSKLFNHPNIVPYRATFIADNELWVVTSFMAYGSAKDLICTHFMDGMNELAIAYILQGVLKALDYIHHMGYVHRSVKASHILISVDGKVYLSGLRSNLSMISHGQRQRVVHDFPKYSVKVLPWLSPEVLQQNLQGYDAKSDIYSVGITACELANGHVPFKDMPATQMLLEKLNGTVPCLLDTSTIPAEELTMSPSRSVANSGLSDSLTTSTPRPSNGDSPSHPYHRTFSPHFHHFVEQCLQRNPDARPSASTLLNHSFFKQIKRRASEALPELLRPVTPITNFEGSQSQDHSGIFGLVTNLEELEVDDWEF
T1 sequence (Q9Y376 1-341 partner): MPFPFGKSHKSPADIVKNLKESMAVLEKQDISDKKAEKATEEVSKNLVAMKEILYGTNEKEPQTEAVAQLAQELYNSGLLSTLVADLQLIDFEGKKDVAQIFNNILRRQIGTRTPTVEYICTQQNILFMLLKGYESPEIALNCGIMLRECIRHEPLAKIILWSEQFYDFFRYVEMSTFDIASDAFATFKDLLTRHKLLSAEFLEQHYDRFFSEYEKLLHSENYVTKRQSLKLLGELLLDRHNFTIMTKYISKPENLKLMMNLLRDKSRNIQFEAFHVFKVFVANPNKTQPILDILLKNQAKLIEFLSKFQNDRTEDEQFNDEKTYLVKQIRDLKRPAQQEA
Format: biochemical

Row | SMILES | LKB1 % Act. Increase
1 | CC(=O)Nc1ccc(-c2cnc(N)c(C(=O)Nc3ccc(S(=O)(=O)NC(C)=O)cc3)n2)cc1 [SU20668-0346, 6-(4-acetamidophenyl)-N-(4-(N-acetylsulfamoyl)phenyl)-3-aminopyrazine-2-carboxamide] | C (C=199-1000%)
2 | CC(=O)NS(=O)(=O)c1ccc(NC(=O)c2nc(-c3ccc(N4CCN(C)CC4)cc3)cnc2N)cc1 [SU20668-0347, N-(4-(N-acetylsulfamoyl)phenyl)-3-amino-6-(4-(4-methylpiperazin-1-yl)phenyl)pyrazine-2-carboxamide] | C (C=199-1000%)
3 | CC(=O)NS(=O)(=O)c1ccc(NC(=O)c2nc(-c3ccc(CO)cc3)cnc2N)cc1 [SU20668-0348, N-(4-(N-acetylsulfamoyl)phenyl)-3-amino-6-(4-(hydroxymethyl)phenyl)pyrazine-2-carboxamide] | C (C=199-1000%)
4 | CC(=O)NS(=O)(=O)c1ccc(NC(=O)c2nc(-c3cccc(N)c3)cnc2N)cc1 [SU20668-0350, N-(4-(N-acetylsulfamoyl)phenyl)-3-amino-6-(3-aminophenyl)pyrazine-2-carboxamide] | D (D=<1000%)
5 | CC(=O)NS(=O)(=O)c1ccc(NC(=O)c2nc(-c3ccc(S(N)(=O)=O)cc3)cnc2N)cc1 [SU20668-0351, N-(4-(N-acetylsulfamoyl)phenyl)-3-amino-6-(4-sulfamoylphenyl)pyrazine-2-carboxamide] | C (C=199-1000%)
6 | CC(=O)NS(=O)(=O)c1ccc(NC(=O)c2nc(-c3cc[nH]n3)cnc2N)cc1 [SU20668-0352, N-(4-(N-acetylsulfamoyl)phenyl)-3-amino-6-(1H-pyrazol-3-yl)pyrazine-2-carboxamide] | C (C=199-1000%)
7 | Cc1ccc(-c2cnc(N)c(C(=O)Nc3ccc(S(=O)(=O)NC(=O)CCOCc4ccccc4)cc3)n2)cc1 [SU20668-0368, 3-amino-N-(4-(N-(3-(benzyloxy)propanoyl)sulfamoyl)phenyl)-6-p-tolylpyrazine-2-carboxamide] | D (D=<1000%)
8 | CC(=O)NS(=O)(=O)c1ccc(NC(=O)c2nc(-c3cnc(C)nc3)cnc2N)cc1 [SU20668-0369, N-(4-(N-acetylsulfamoyl)phenyl)-3-amino-6-(2-methylpyrimidin-5-yl)pyrazine-2-carboxamide] | C (C=199-1000%)
9 | CC(=O)NS(=O)(=O)c1ccc(NC(=O)c2nc(-c3cnc(N)nc3)cnc2N)cc1 [SU20668-0372, N-(4-(N-acetylsulfamoyl)phenyl)-3-amino-6-(2-aminopyrimidin-5-yl)pyrazine-2-carboxamide] | D (D=<1000%)
10 | CCS(=O)(=O)c1cccc(-c2cnc(N)c(C(=O)Nc3ccc(S(=O)(=O)NC(C)=O)cc3)n2)c1 [SU20668-0373, N-(4-(N-acetylsulfamoyl)phenyl)-3-amino-6-(3-(ethylsulfonyl)phenyl)pyrazine-2-carboxamide] | C (C=199-1000%)
11 | CC(=O)NS(=O)(=O)c1ccc(NC(=O)c2nc(-c3ccncc3F)cnc2N)cc1 [SU20668-0374, N-(4-(N-acetylsulfamoyl)phenyl)-3-amino-6-(3-fluoropyridin-4-yl)pyrazine-2-carboxamide] | C (C=199-1000%)
12 | COc1cc(F)c(-c2cnc(N)c(C(=O)Nc3ccc(S(=O)(=O)NC(C)=O)cc3)n2)c(F)c1 [SU20668-0375, N-(4-(N-acetylsulfamoyl)phenyl)-3-amino-6-(2,6-difluoro-4-methoxyphenyl)pyrazine-2-carboxamide] | D (D=<1000%)
13 | CC(=O)NS(=O)(=O)c1ccc(NC(=O)c2nc(-c3csc4ccccc34)cnc2N)cc1 [SU20668-0376, N-(4-(N-acetylsulfamoyl)phenyl)-3-amino-6-(benzo[b]thiophen-3-yl)pyrazine-2-carboxamide] | C (C=199-1000%)
14 | CC(=O)NS(=O)(=O)c1ccc(NC(=O)c2nc(-c3cccc(N4CCOCC4)c3)cnc2N)cc1 [SU20668-0377, N-(4-(N-acetylsulfamoyl)phenyl)-3-amino-6-(3-morpholinophenyl)pyrazine-2-carboxamide] | D (D=<1000%)
15 | CC(=O)NS(=O)(=O)c1ccc(NC(=O)c2nc(-c3ccc(C)c(F)c3)cnc2N)cc1 [SU20668-0390, N-(4-(N-acetylsulfamoyl)phenyl)-3-amino-6-(3-fluoro-4-methylphenyl)pyrazine-2-carboxamide] | D (D=<1000%)
16 | CC(=O)NS(=O)(=O)c1ccc(NC(=O)c2nc(-c3ccc(Cl)cc3)cnc2N)cc1 [SU20668-0391, N-(4-(N-acetylsulfamoyl)phenyl)-3-amino-6-(4-chlorophenyl)pyrazine-2-carboxamide] | D (D=<1000%)
17 | CC(=O)NS(=O)(=O)c1ccc(NC(=O)c2nc(-c3ccc(OC(F)(F)F)cc3)cnc2N)cc1 [SU20668-0392, N-(4-(N-acetylsulfamoyl)phenyl)-3-amino-6-(4-(trifluoromethoxy)phenyl)pyrazine-2-carboxamide] | D (D=<1000%)
18 | COP(=O)(CS(=O)(=O)c1ccc(NC(=O)c2nc(-c3cc(F)ccc3C#N)cnc2N)cc1)OC [SU20668-0446, dimethyl (4-(3-amino-6-(2-cyano-5-fluorophenyl)pyrazine-2-carboxamido)phenylsulfonyl)methylphosphonate] | D (D=<1000%)
19 | COP(=O)(CS(=O)(=O)c1ccc(NC(=O)c2nc(-c3ccc(S(C)(=O)=O)cc3)cnc2N)cc1)OC [SU20668-0447, dimethyl (4-(3-amino-6-(4-(methylsulfonyl)phenyl)pyrazine-2-carboxamido)phenylsulfonyl)methylphosphonate] | D (D=<1000%)
20 | COP(=O)(CS(=O)(=O)c1ccc(NC(=O)c2nc(-c3ccc(C)s3)cnc2N)cc1)OC [SU20668-0448, dimethyl (4-(3-amino-6-(5-methylthiophen-2-yl)pyrazine-2-carboxamido)phenylsulfonyl)methylphosphonate] | C (C=199-1000%)
21 | COP(=O)(CS(=O)(=O)c1ccc(NC(=O)c2nc(-c3cc(F)ccc3Cl)cnc2N)cc1)OC [SU20668-0449, dimethyl (4-(3-amino-6-(2-chloro-5-fluorophenyl)pyrazine-2-carboxamido)phenylsulfonyl)methylphosphonate] | C (C=199-1000%)
22 | COP(=O)(CS(=O)(=O)c1ccc(NC(=O)c2nc(-c3ccc(C)cc3C)cnc2N)cc1)OC [SU20668-0450, dimethyl (4-(3-amino-6-(2,4-dimethylphenyl)pyrazine-2-carboxamido)phenylsulfonyl)methylphosphonate] | D (D=<1000%)
23 | Cc1ccc(-c2cnc(N)c(C(=O)Nc3ccc(S(=O)(=O)Nc4cc(C)on4)cc3)n2)cc1 [SU20668-0467, 3-amino-N-(4-(N-(5-methylisoxazol-3-yl)sulfamoyl)phenyl)-6-p-tolylpyrazine-2-carboxamide] | C (C=199-1000%)
24 | Cc1ccc(-c2cnc(N)c(C(=O)Nc3ccc(S(=O)(=O)NS(C)(=O)=O)cc3)n2)cc1 [SU20668-0470, 3-amino-N-(4-(N-(methylsulfonyl)sulfamoyl)phenyl)-6-p-tolylpyrazine-2-carboxamide] | D (D=<1000%)
25 | CCOP(=O)(CS(=O)(=O)c1ccc(NC(=O)c2nc(-c3cc(F)ccc3C#N)cnc2N)cc1)OCC [SU20668-0471, diethyl (4-(3-amino-6-(2-cyano-5-fluorophenyl)pyrazine-2-carboxamido)phenylsulfonyl)methylphosphonate] | D (D=<1000%)
26 | CCOP(=O)(NS(=O)(=O)c1ccc(NC(=O)c2nc(-c3ccc(C)cc3)cnc2N)cc1)OCC [SU20668-0475, diethyl 4-(3-amino-6-p-tolylpyrazine-2-carboxamido)phenylsulfonylphosphoramidate] | B (B=399-2000%)
27 | CCOP(C)(=O)COc1ccc(NC(=O)c2nc(-c3ccc(C)cc3)cnc2N)cc1 (centres unmarked) [SU20668-0476] | D (D=<1000%)
28 | Cc1ccc(-c2cnc(N)c(C(=O)Nc3ccc(C(=O)NS(C)(=O)=O)cc3)n2)cc1 [SU20668-0478, 3-amino-N-(4-(methylsulfonylcarbamoyl)phenyl)-6-p-tolylpyrazine-2-carboxamide] | D (D=<1000%)
29 | CCNP(=O)(CS(=O)(=O)c1ccc(NC(=O)c2nc(-c3ccc(C)cc3)cnc2N)cc1)OCC (centres unmarked) [SU20668-0480, ethyl P-(4-(3-amino-6-p-tolylpyrazine-2-carboxamido)phenylsulfonyl)methyl-N-ethylphosphonamidate] | D (D=<1000%)
